Consider two compounds from PMC10096054, “A New Application of Spin and Fluorescence Double-Sensor Molecules” (Molecules, 2023).

For the assay, the target named is T1, human serum albumin (HSA) (Homo sapiens, UniProt P02768).
T1 construct: gene ALB; commercial human serum albumin purchased from Merck
Put plainly: fluorescence polarization titration, nonlinear […] fit. Format: binding. Background: Polarisation of emitted light reports the rotation of a fluorescent probe.

Where two headings read alike, the source gives them in different places.

T1 sequence (P02768 25-609): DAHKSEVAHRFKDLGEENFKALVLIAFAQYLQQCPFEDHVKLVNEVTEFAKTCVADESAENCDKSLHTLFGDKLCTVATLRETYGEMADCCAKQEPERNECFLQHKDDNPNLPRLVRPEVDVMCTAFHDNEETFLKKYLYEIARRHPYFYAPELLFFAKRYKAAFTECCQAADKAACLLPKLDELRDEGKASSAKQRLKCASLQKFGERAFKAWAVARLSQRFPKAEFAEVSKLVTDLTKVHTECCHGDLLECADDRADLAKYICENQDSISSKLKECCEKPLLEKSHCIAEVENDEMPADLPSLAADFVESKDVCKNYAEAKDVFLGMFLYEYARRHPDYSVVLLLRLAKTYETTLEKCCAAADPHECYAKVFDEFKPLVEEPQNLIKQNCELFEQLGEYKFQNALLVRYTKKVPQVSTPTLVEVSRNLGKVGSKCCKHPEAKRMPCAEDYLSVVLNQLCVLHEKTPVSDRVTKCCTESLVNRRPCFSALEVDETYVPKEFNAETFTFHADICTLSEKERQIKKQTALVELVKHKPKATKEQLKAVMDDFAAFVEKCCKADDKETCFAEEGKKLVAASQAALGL

`CC1(C)C(CO)=C(c2ccc3ccc4cccc5ccc2c3c45)C(C)(C)N1[O]` [compound 1, 3-hydroxymethyl-1-oxyl-4-(pyren-1-yl)-2,2,5,5-tetramethyl-2,5-dihydro-1H-pyrrole radical] gave a Kd of 1.41 µM. For `CON1C(C)(C)C(CO)=C(c2ccc3ccc4cccc5ccc2c3c45)C1(C)C` [compound 6, (1-methoxy-2,2,5,5-tetramethyl-4-(pyren-1-yl)-2,5-dihydro-1H-pyrrol-3-yl)methanol], the Kd (read-out: logK (1-HSA, Absence of 2) (converted)) was 0.331 µM.
